Measured values taken from publication PMC8683663 (International Journal of Pharmaceutics: X, 2021).
Converted amounts (≈) assume the structure as drawn. Like-named read-outs stand apart in the source and are kept apart here. Each block holds one compound with its values, some of them ahead of it.

Experiments:
[1] = Pharmacokinetic dose escalation study in rats; assay type: in vivo, Sprague Dawley rats; conditions: for Zosuquidar tmax: median [Q1;Q3]; for bioavailability: Etoposide Bioavailability
[2] = 20 mg/kg zosuquidar IV; ref Anderson et al., 2006; cited from earlier work
[3] = Zosuquidar recovery in the compartments of the Caco-2 Transwell system; assay type: in vitro ADME; conditions: for zosuquidar left in solution / zosuquidar recovery: 120 min, mean ± SEM, n = 24; for zosuquidar left in solution: % of added
[4] = for precipitation upon dilution in rSIF (visual): 1:1 in rSIF; for initial zosuquidar solubility: supernatant, 37 °C
[5] = weak base; ref Drugbank, 2021; cited from earlier work
[6] = test system: P-gp; test: In vitro-in vivo correlation of P-gp inhibition; conditions: 180 μM intestinal concentration in vivo vs. 5–10 nM in Caco-2
[7] = 10 mg/kg encequidar, oral; ref Smolinski et al., 2021; cited from earlier work
[8] = test system: Caco-2 cell monolayers; test: Lucifer yellow permeability; assay type: in vitro ADME
[9] = Bidirectional etoposide permeability across Caco-2 cell monolayers; assay type: in vitro ADME; conditions: human, Caco-2, pH 7.4
[10] = test system: Caco-2 cell monolayers; test: as above; assay type: in vitro ADME; conditions: in the presence of more than 79 nM zosuquidar; Caco-2
[11] = Etoposide solubility in ethanol-water mixtures; assay type: physicochemical; conditions: 22 °C, thermodynamic from solid
[12] = ref Al-Ali et al., cited from earlier work; for oral bioavailability of etoposide: 2020
[13] = mdr1a(−/−) (P-gp) knockout rats; ref Al-Ali et al., 2018a; cited from earlier work
[14] = group B: zosuquidar 20 mg/kg oral + etoposide 5 mg/kg IV, mean ± SEM, n = 6
[15] = group F: zosuquidar 0.63 mg/kg oral + etoposide 20 mg/kg oral, mean ± SEM, n = 6
[16] = group G: zosuquidar 2.0 mg/kg oral + etoposide 20 mg/kg oral, mean ± SEM, n = 6
[17] = group H: zosuquidar 6.3 mg/kg oral + etoposide 20 mg/kg oral, mean ± SEM, n = 6
[18] = group I: zosuquidar 20 mg/kg oral + etoposide 20 mg/kg oral, mean ± SEM, n = 6
[19] = group J: zosuquidar 63 mg/kg oral + etoposide 20 mg/kg oral, mean ± SEM, n = 6
[20] = etoposide 5 mg/kg IV, by an oral dose of 20 mg/kg zosuquidar (group B vs A)

Compound: O[C@@H](COc1cccc2ncccc12)CN1CCN([C@@H]2c3ccccc3[C@@H]3[C@H](c4ccccc42)C3(F)F)CC1 [zosuquidar]
- zosuquidar plasma concentration ([1]; 2 h after a 5 mg/kg IV bolus): 0.13 µg/mL
- Zosuquidar AUC0-6h [1, 14]: 94.2 ± 12.4 ng·h/mL
- Zosuquidar Bioavailability [1, 14]: 2.81±0.37%
- Zosuquidar Cmax [1, 14]: 23.7 ± 3.6 ng/mL
- Zosuquidar t½ terminal [1, 14]: 2.88 ± 0.167 h
- Zosuquidar tmax ([1]; group B: zosuquidar 20 mg/kg oral + etoposide 5 mg/kg IV, n = 6): 120[60;135] min
- Zosuquidar AUC0-6h ([1]; group C: zosuquidar 5.0 mg/kg IV, mean ± SEM, n = 3): 830 ± 87 ng·h/mL
- Zosuquidar CL ([1]; group C: zosuquidar 5.0 mg/kg IV, n = 3): 102 ± 12 mL/min/kg
- Zosuquidar t½ terminal ([1]; group C: zosuquidar 5.0 mg/kg IV, two-compartment model, mean ± SEM, n = 3): 2.33 ± 0.4 h
- Zosuquidar AUC0-6h [1, 15]: 4.45 ± 0.86 ng·h/mL
- Zosuquidar Bioavailability [1, 15]: 4.21±0.81%
- Zosuquidar Cmax [1, 15]: 1.34 ± 0.28 ng/mL
- Zosuquidar t½ terminal [1, 15]: 1.37 ± 0.0917 h
- Zosuquidar tmax ([1]; group F: zosuquidar 0.63 mg/kg oral + etoposide 20 mg/kg oral, n = 6): 120[101;120] min
- Zosuquidar AUC0-6h [1, 16]: 8.67 ± 0.77 ng·h/mL
- Zosuquidar Bioavailability [1, 16]: 2.58±0.23%
- Zosuquidar Cmax [1, 16]: 2.10 ± 0.27 ng/mL
- Zosuquidar t½ terminal [1, 16]: 3.62 ± 0.45 h
- Zosuquidar tmax ([1]; group G: zosuquidar 2.0 mg/kg oral + etoposide 20 mg/kg oral, n = 6): 120[45;135] min
- Zosuquidar AUC0-6h [1, 17]: 43.6 ± 5.4 ng·h/mL
- Zosuquidar Bioavailability [1, 17]: 4.12±0.51%
- Zosuquidar Cmax [1, 17]: 10.9 ± 1.2 ng/mL
- Zosuquidar t½ terminal [1, 17]: 2.68 ± 0.217 h
- Zosuquidar tmax ([1]; group H: zosuquidar 6.3 mg/kg oral + etoposide 20 mg/kg oral, n = 6): 90[45;120] min
- Zosuquidar AUC0-6h [1, 18]: 118 ± 21 ng·h/mL
- Zosuquidar Bioavailability [1, 18]: 3.52±0.62%
- Zosuquidar Cmax [1, 18]: 31.3 ± 3.2 ng/mL
- Zosuquidar t½ terminal [1, 18]: 3.23 ± 0.383 h
- Zosuquidar AUC0-6h [1, 19]: 436 ± 91 ng·h/mL
- Zosuquidar Bioavailability [1, 19]: 4.12±0.86%
- Zosuquidar Cmax [1, 19]: 105 ± 21 ng/mL
- Zosuquidar t½ terminal [1, 19]: 3.97 ± 0.233 h
- Oral zosuquidar bioavailability ([1]; range over the oral zosuquidar doses, Sprague Dawley rats): 2.6–4.2%
- tolerability of IV zosuquidar [2]: no reported issues
- reduction of free zosuquidar concentration in the receiver compartments ([3]; apical and basolateral, after 30 min, data not shown): 60–72%
- zosuquidar left in solution ([3]; apical compartment): 1.55 ± 0.06%
- zosuquidar left in solution ([3]; basolateral compartment): 7.01 ± 0.37%
- zosuquidar recovery ([3]; in the Caco-2 monolayer): 58.7 ± 5.0%
- zosuquidar recovery ([3]; in the cell culture plate): 31.8 ± 11.3%
- precipitation upon dilution in rSIF (visual) ([4]; 2.0 and 6.3 mg/mL zosuquidar (groups B, I, J)): precipitation was observed
- initial zosuquidar solubility ([4]; formulation B (2.0 mg/mL zosuquidar) diluted 1:1 in rSIF): 450 µg/mL
- dose strength being in solution ([4]; formulation B diluted 1:1 in rSIF): 44%
- initial zosuquidar solubility ([4]; formulation I (2.0 mg/mL zosuquidar) diluted 1:1 in rSIF): 520 µg/mL
- dose strength being in solution ([4]; formulation I diluted 1:1 in rSIF): 52%
- initial zosuquidar solubility ([4]; formulation J (6.3 mg/mL zosuquidar) diluted 1:1 in rSIF): 470 µg/mL
- dose strength being in solution ([4]; formulation J diluted 1:1 in rSIF): 15%
- precipitation upon dilution in rSIF (visual) ([4]; lower zosuquidar concentrations): remained clear
- predicted pKa [5]: 7.6
- in vitro-in vivo discrepancy of zosuquidar P-gp inhibition [6]: at least four orders of magnitude

Compound: COc1cc2c(cc1OC)CN(CCc1ccc(-n3nnc(-c4cc(OC)c(OC)cc4NC(=O)c4cc(=O)c5ccccc5o4)n3)cc1)CC2 [encequidar]
- encequidar Cmax [7]: 7.1 ng/mL
- encequidar bioavailability [7]: 6.25%

- lucifer yellow Papp ([8]; 100 μM lucifer yellow, Caco-2, not affected by zosuquidar): below 1.1 × 10^−6 cm/s
- lucifer yellow recovery ([8]; Caco-2 permeability experiments): 82–110%
Compound: lucifer yellow

- increase of etoposide AUC0-6h [1, 20]: 34%
- increase of etoposide t½ [1, 20]: 37%
- Etoposide Bioavailability ([1]; group D: etoposide 20 mg/kg oral, no zosuquidar, mean ± SEM, n = 6): 5%
- AUC(0-t) ([1]; male, Sprague Dawley, rat, plasma, po, 20 mg/kg, Etoposide AUC0-6h, group I: etoposide 20 mg/kg oral + zosuquidar 20 mg/kg oral, mean ± SEM, n = 6): 3530 ± 460 ng·h/mL
- bioavailability ([1]; male, Sprague Dawley, rat, plasma, po, 20 mg/kg, group D: etoposide 20 mg/kg oral, no zosuquidar, mean ± SEM, n = 6): 5.5 ± 0.9%
- bioavailability ([1]; male, Sprague Dawley, rat, plasma, po, 20 mg/kg, group I: etoposide 20 mg/kg oral + zosuquidar 20 mg/kg oral, mean ± SEM, n = 6): 20.5 ± 2.7%
- recovery at 120 min, 50 µM [9]: 95 to 117%
- decrease of etoposide B-A permeability [10]: 5 fold
- increase of etoposide A-B permeability [10]: 4 fold
- solubility at 24 h ([11]; absolute ethanol, organic solvent or mixture): 891 ± 8 µg/mL (≈ 1510 µM)
- solubility at 24 h ([11]; ethanol-water mixture): 9230 ± 420 µg/mL (≈ 15700 µM)
- solubility at 24 h ([11]; water): 92.4 ± 3.4 µg/mL (≈ 157 µM)
- precipitation upon dilution in rSIF (visual) ([4]; etoposide, any formulation): did not precipitate
Compound: COc1cc([C@@H]2c3cc4c(cc3[C@@H](O[C@@H]3O[C@@H]5CO[C@@H](C)O[C@H]5[C@H](O)[C@H]3O)[C@H]3COC(=O)[C@H]23)OCO4)cc(OC)c1O [etoposide]
- oral bioavailability of etoposide ([12]; 20 mg/kg etoposide oral + 20 mg/kg oral zosuquidar): 34.5%
- absolute etoposide bioavailability ([12]; wild-type rats, 2018a): 27 ± 5%
- oral bioavailability of etoposide ([12]; without zosuquidar): 4.0%
- oral etoposide bioavailability [13]: 92%
